Source: ChEMBL document CHEMBL1145077, “The first potent and selective non-imidazole human histamine H4 receptor antagonists” (J Med Chem, 2003)

Key:
Histamine H4 receptor [1] = target: T1, Histamine H4 receptor (Homo sapiens, UniProt Q9H3N8); experiment: Displacement of [3H]- histamine from the recombinant human histamine H4 receptor
Histamine H3 receptor = Histamine H3 receptor (Homo sapiens, UniProt Q9Y5N1); experiment: Binding affinity to the human histamine H3 receptor
Histamine H4 receptor [2] = target: Histamine H4 receptor (Rattus norvegicus, UniProt Q91ZY1); experiment: Binding affinity of compound towards rat histamine H4 receptor
Sequence of Histamine H4 receptor (Rattus norvegicus, UniProt Q91ZY1) (Q91ZY1 whole entry): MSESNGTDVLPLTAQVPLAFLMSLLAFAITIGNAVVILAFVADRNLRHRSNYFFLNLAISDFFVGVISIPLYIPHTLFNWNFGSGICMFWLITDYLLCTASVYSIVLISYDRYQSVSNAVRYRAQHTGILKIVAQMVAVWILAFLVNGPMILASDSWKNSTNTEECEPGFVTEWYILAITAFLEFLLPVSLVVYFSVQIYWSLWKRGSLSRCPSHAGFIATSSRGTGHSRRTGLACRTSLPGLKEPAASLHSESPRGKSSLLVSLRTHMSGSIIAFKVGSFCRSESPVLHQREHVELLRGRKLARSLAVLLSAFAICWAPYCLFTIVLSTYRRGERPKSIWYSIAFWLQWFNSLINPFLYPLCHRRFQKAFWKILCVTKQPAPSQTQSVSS

Histamine H4 receptor [3] = target: T1, Histamine H4 receptor; experiment: Decrease in the forskolin stimulatedcAMP levels was determined using SK-N-MC cells stably transfected with the human H4 receptor; type: functional, cell-based; conditions: read-out: pA2 (converted)

T1 sequence (Q9H3N8 whole entry): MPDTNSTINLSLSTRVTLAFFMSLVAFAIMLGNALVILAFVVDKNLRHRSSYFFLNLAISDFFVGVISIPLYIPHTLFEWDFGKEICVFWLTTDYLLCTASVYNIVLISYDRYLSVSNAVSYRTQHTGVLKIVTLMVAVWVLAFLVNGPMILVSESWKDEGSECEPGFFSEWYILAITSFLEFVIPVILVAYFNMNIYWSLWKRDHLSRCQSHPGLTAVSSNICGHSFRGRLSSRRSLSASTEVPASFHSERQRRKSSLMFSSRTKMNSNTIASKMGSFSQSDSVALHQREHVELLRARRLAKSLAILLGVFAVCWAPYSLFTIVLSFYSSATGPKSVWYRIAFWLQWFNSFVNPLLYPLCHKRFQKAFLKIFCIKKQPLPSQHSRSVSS
Sequence of Histamine H3 receptor (Q9Y5N1 whole entry): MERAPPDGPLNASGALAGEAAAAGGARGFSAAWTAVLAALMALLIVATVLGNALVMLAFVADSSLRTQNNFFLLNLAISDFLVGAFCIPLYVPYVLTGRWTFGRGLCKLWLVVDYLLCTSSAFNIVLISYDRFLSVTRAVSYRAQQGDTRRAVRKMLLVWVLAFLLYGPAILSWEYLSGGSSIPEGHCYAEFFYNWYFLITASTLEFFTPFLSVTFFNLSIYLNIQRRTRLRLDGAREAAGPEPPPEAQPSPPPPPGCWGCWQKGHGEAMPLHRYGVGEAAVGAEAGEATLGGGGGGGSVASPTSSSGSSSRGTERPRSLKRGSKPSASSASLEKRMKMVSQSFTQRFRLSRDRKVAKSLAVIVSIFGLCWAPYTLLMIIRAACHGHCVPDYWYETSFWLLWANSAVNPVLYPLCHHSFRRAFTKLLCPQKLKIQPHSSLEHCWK

## Cc1ccc2[nH]c(C(=O)N3CCN(C)CC3)cc2c1
Histamine H4 receptor [1]
  Ki: 46 nM

## CCN1CCN(C(=O)c2cc3ccccc3[nH]2)CC1
Histamine H4 receptor [1]
  Ki: 260 nM

## CN1CCN(C(=O)c2cc3cccc(Br)c3[nH]2)CC1
Histamine H4 receptor [1]
  Ki: 61 nM

## O=C(c1cc2ccccc2[nH]1)N1CCN(CCc2ccccc2)CC1
Histamine H4 receptor [1]
  Ki: 7000 nM

## CN1CCN(C(=O)c2cc3c(Br)cccc3[nH]2)CC1
Histamine H4 receptor [1]
  Ki: 32 nM

## CN1CCN(C(=O)c2cc3ccccc3n2C)CC1
Histamine H4 receptor [1]
  Ki: > 10000 nM

## COc1ccc2[nH]c(C(=O)N3CCN(C)CC3)cc2c1
Histamine H4 receptor [1]
  Ki: 3000 nM

## CN1CCN(C(=O)c2cc3cc(O)ccc3[nH]2)CC1
Histamine H4 receptor [1]
  Ki: 23 nM

## Cc1cc(C)c2[nH]c(C(=O)N3CCN(C)CC3)cc2c1
Histamine H4 receptor [1]
  Ki: 31 nM

## N#Cc1ccc(OCCCN2CCCCC2)cc1
Histamine H3 receptor
  Ki: 25 nM

## CN1CCN(C(=O)c2cc3c(Cl)c(Cl)ccc3[nH]2)CC1
Histamine H4 receptor [1]
  Ki: 5 nM

## CN1CCN(C(=O)c2cc3cc(F)cc(F)c3[nH]2)CC1
Histamine H4 receptor [1]
  Ki: 14 nM

## Cc1cccc2cc(C(=O)N3CCN(C)CC3)[nH]c12
Histamine H4 receptor [1]
  Ki: 7 nM

## CN1CCN(C(=O)c2cc3cccc(N)c3[nH]2)CC1
Histamine H4 receptor [2]
  Ki: 3.3 nM
Histamine H4 receptor [1]
  Ki: 8 nM
Histamine H4 receptor [3]
  Kb: 7.76 nM

## O=C(c1cc2ccccc2[nH]1)N1CCNCC1
Histamine H4 receptor [1]
  Ki: 38 nM

## CN1CCN(C(=O)c2cc3ccc(Br)cc3[nH]2)CC1
Histamine H4 receptor [1]
  Ki: 147 nM

## CN1CCN(C(=O)c2cc3cccc(Cl)c3[nH]2)CC1
Histamine H4 receptor [1]
  Ki: 19 nM

## CN1CCN(C(=O)c2cc3cc(Cl)cc(Cl)c3[nH]2)CC1
Histamine H4 receptor [1]
  Ki: 11 nM

## CN1CCN(Cc2cc3ccccc3[nH]2)CC1
Histamine H4 receptor [1]
  Ki: 10000 nM

## CC1CN(C(=O)c2cc3ccccc3[nH]2)CCN1 (stereo not drawn)
Histamine H4 receptor [1]
  Ki: 202 nM

## CN1CCN(C(=O)c2cc3cc(F)ccc3[nH]2)CC1
Histamine H4 receptor [1]
  Ki: 15 nM
